From patent US20240201169A1, “METHODS OF THREE-DIMENSIONAL TUMOR SPHEROID MICROARRAY FOR HIGH-THROUGHPUT, HIGH-CONTENT IMMUNE CELL-MEDIATED CYTOTOXICITY” (RENSSELAER POLYTECHNIC INSTITUTE, priority 2021, published 2024)
pEC50: −log10 of the molar value.

Assays:
[1] = system: MDA-MB-231 spheroids; assay: 3D tumor spheroid 330-micropillar/microwell cytotoxicity (NK ADCC/drug combination, paclitaxel dose response); assay type: cell-based; settings: for target cell cytotoxicity of combination: combination of NK92-CD16 at E:T 10:1, Trastuzumab and drug (3.5 nM doxorubicin, p<0.01; 7.0 nM paclitaxel, p<0.05)
Description: (§1) High-content imaging of 3D tumor spheroid micropillar array for effector cell-mediated cytotoxicity including NK ADCC/drug combination. Uniform-sized 3D spheroids in the 330-micropillar array were used to perform high-throughput ADCC on three different cancer cell lines; MiaPaCa-2, MCF7 and MDA-MB-231, the latter a triple negative breast cancer cell line, in the presence and absence of two chemotherapeutic drugs, doxorubicin and paclitaxel. The ADCC screen was performed by spotting 250 nL onto polydopamine-coated micropillars including 2500 target cancer cells per spot. The cells were cultured for 3 days and then treated with NK92-CD16 cells. […] As a control, one block of spots was reserved for exposure of target cells with both antibody and the drugs but without NK92-CD16 cells. The micropillar/microwell sandwich platform was incubated for 24 h upside-down to allow for target cell killing on culture day 3. The next day, the chips were then washed, stained with Hoechst 33342, Calcein-AM and Propidium Iodide, and imaged using the ASFA™ scanner.
(§2) There was interest in whether MDA-MB-231, which is a triple negative breast cancer cell line having reduced expression of estrogen receptor (ER), progesterone receptor and HER252, was susceptible to cell death upon combination exposure of paclitaxel, Atezolizumab and NK92-CD16 cells. Triple negative breast cancers are particularly aggressive to treat due to very low expression levels of ER, PR and HER253. To test this, the three target cancer cell lines were spotted onto the 330-micropillar platform to generate the corresponding 3D spheroids. […] The 3D spheroids on the micropillar chip were incubated for 24 h, and then stained and imaged.
3D experiments on 330-micropillar/microwell sandwich system. Polystyrene 330 micropillar chips (MBD Korea Co., South Korea) were coated with polydopamine, washed and dried until further use. The 330 well chips were UV-treated using a 96 W transilluminator (Syngene GVM-30) for 4 h to enhance surface hydrophilicity. Cancer cells were detached as described previously and mixed with high concentration growth factor-reduced Matrigel to obtain a final cell concentration of 1×10^7 cells/mL. Then, 250 nL of the Matrigel-cell mixture was spotted using the ASFA™ spotter onto the polydopamine coated 330 micropillar chips. The chips were incubated face down in a humidity chamber at 37° C. for 15 min to allow for gelation and then they were sandwiched with the corresponding 330 microwell chip including 3.6 μL of fresh medium per well. The chips were cultured for a period of 3 days prior to NK cell exposure. The cell growth medium on the chip was exchanged every 2 days. For cytotoxicity experiments, where the NK92-CD16 ratio was varied, 25 different conditions were tested (see Table 1 below), including a dead control (via addition of saponin).
(§3) Similarly, for the dose response experiments with paclitaxel, where the E:T ratio was fixed at 5:1, 25 different conditions including a dead cell control were evaluated, as shown in Table 2.
Unconjugated anti-HER2 antibody was used for experiments on 330 micropillar/microwell chips. […] The micropillar chip with target cells was then stamped onto the 330 microwell chip and incubated upside down for 24 h. […] The chips were subsequently washed in DPBS and imaged using an ASFA™ Cell Scanner (MBD Korea Co., South Korea) and quantitatively analyzed using cell analyzer software within the imaging system. […]

[2] = system: MCF7 spheroids; assay type: cell-based; settings: for target cell cytotoxicity of combination: combination of NK92-CD16 at E:T 10:1, Trastuzumab and drug (3.5 nM doxorubicin, p<0.01; 7.0 nM paclitaxel, p<0.05)
Description: as §1, §2
3D experiments on 330-micropillar/microwell sandwich system. Polystyrene 330 micropillar chips (MBD Korea Co., South Korea) were coated with polydopamine, washed and dried until further use. The 330 well chips were UV-treated using a 96 W transilluminator (Syngene GVM-30) for 4 h to enhance surface hydrophilicity. Cancer cells were detached as described previously and mixed with high concentration growth factor-reduced Matrigel to obtain a final cell concentration of 1×10^7 cells/mL. Then, 250 nL of the Matrigel-cell mixture was spotted using the ASFA™ spotter onto the polydopamine coated 330 micropillar chips. […]
as §3
(§4) Unconjugated anti-HER2 antibody was used for experiments on 330 micropillar/microwell chips. […] The chips were subsequently washed in DPBS and imaged using an ASFA™ Cell Scanner (MBD Korea Co., South Korea) and quantitatively analyzed using cell analyzer software within the imaging system. […]

[3] = system: MiaPaCa-2 spheroids; settings: antibody 2.5 μg/mL with NK92-CD16 (5:1) and paclitaxel dose range, 24 h
Description: as §1, with “The next day, the chips were then washed, stained with Hoechst 33342, Calcein-AM and Propidium Iodide, and imaged using the ASFA™ scanner.” left out
as §3, §4

[4] = system: three target cancer cell lines (3D spheroids); assay: cells; settings: 24 h, read-out: EC50 (paclitaxel-induced cytotoxicity)
Source text: as §2
3D experiments on 330-micropillar/microwell sandwich system. Polystyrene 330 micropillar chips (MBD Korea Co., South Korea) were coated with polydopamine, washed and dried until further use. […]
as §3, §4

[5] = paclitaxel alone, spheroid culture

Compound | target cell cytotoxicity of combination ([1]; 24 h) | target cell cytotoxicity of combination ([2]; 24 h) | inducing cytotoxicity [3] | effectiveness as a cytotoxic agent [1, 5] | fold lower EC50 value for paclitaxel ([1]; paclitaxel in the presence of Atezolizumab 2.5 μg/mL along with NK92-CD16 (5:1), 24 h) | cytotoxic effectiveness of condition ([1]; paclitaxel in the presence of both Trastuzumab 2.5 μg/mL and NK92-CD16 (5:1), 24 h) | effectiveness as a cytotoxic agent [2, 5] | fold lower EC50 value for paclitaxel ([2]; paclitaxel with Trastuzumab 2.5 μg/mL and NK92-CD16 (5:1) vs absence of antibody and effector cells, 24 h) | pEC50 [4]
COc1cccc2c1C(=O)c1c(O)c3c(c(O)c1C2=O)C[C@@](O)(C(=O)CO)C[C@@H]3O[C@H]1C[C@H](N)[C@H](O)[C@H](C)O1 [doxorubicin] | significantly more effective | significantly more effective | – | – | – | – | – | – | –
Atezolizumab | – | – | effective in inducing cytotoxicity | – | – | – | – | – | –
CC(=O)O[C@H]1C(=O)[C@@]2(C)[C@H]([C@H](OC(=O)c3ccccc3)[C@]3(O)C[C@H](OC(=O)[C@H](O)[C@@H](NC(=O)c4ccccc4)c4ccccc4)C(C)=C1C3(C)C)[C@]1(OC(C)=O)CO[C@@H]1C[C@@H]2O [paclitaxel] | significantly more effective | significantly more effective | – | poorly effective | approximately 43 fold | did not prove to be effective | poorly effective | approximately 1.8 fold | < 3.30
